Data from patent publication US7229769B2, “Compositions and methods for detecting protease activity” (Illumina, Inc., priority 2005, dated 2007).
Residues, ends and D or L forms follow the SMILES beside them. *: point of attachment. Cbz = O=C(OCc1ccccc1)*; CH2F = FC*

Target: T1, Caspase-3 (Homo sapiens, UniProt P42574)
T1 sequence (P42574 29-175 limits assumed): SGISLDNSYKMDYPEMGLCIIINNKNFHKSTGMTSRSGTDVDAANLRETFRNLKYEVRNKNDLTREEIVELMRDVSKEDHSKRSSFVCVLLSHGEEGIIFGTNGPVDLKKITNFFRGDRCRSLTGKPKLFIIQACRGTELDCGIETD
T1 sequence (P42574 176-277 limits assumed): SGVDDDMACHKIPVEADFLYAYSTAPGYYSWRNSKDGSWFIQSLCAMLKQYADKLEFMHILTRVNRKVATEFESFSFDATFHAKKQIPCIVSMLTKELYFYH
Assay: Caspase-3 protease assay with protein-DNA conjugate substrate, streptavidin extraction, BeadArray detection; inhibition analysis
Format: biochemical
Conditions: end point assays, various concentrations of inhibitor vs. absence of inhibitor, FIG. 10
Protocol: Caspase-3 protease activity was carried out as follows. Briefly, the caspase-3 substrate included a protein moiety (peptide) having a caspase-3 amino acid recognition sequence. The protein moiety was attached at its amino terminus to a FAM-labeled DNA moiety and at its carboxy terminus to a biotin. The enzymatic reactions were performed in 30 to 60 microliter volumes having substrate concentrations in the range of 20 nM to 150 nM. The enzyme concentrations ranged from a few ng/ml to a few mg/ml. The assay buffer was 50 mM Tris-HCL, pH 8.0, 1 mM CaCl2, and 0.1% Tween-20 (v/v). The assay was carried out at 37° C. at varying times from 5 minutes to twelve hours.
Following incubation of the protease and substrate, the reaction mixture was extracted with streptavidin beads provided in molar excess for 15 minutes to remove uncleaved substrate (and cleaved protein fragments lacking the DNA moiety). Following removal of the streptavidin beads, the remaining mixture, containing FAM-labeled DNA fragments of the cleaved caspase-3 substrate, was diluted into GoldenGate™ hybridization buffer (Illumina, Inc., San Diego, Calif.) and hybridized onto a Sentrix® BeadArray Matrix for one hour at room temperature. The BeadArray matrix included nucleic acid probes that were complementary to the FAM-labeled DNA fragments. […]

For COC(=O)C[C@H](NC(=O)[C@H](C)NC(=O)[C@@H](NC(=O)OCc1ccccc1)C(C)C)C(=O)CF [ZVAD-FMK] (Cbz-Val-Ala-Asp(OMe)-CH2F), the “extent of inhibition of caspase-3 (mean signal intensity vs. time)” value was “as the concentration of inhibitor was increased the extent of inhibition was also increased”.
